Counter-ions that a name gives are not always drawn. Like-named read-outs stand apart in the source and are kept apart here.
Assays:
[1] = tested on: M. tuberculosis ATCC 27,294; experiment: MIC by resazurin microplate assay (broth microdilution); format: cell-based, Mycobacterium tuberculosis; conditions: for MIC: read-out: Minimal inhibitory concentration (MIC) M. tuberculosis
[2] = tested on: S. pneumoniae ATCC 49619; experiment: as above; format: cell-based, Streptococcus pneumoniae; conditions: read-out: Minimal inhibitory concentration (MIC) S. pneumoniae
[3] = tested on: C. ammoniagenes ATCC 6872; experiment: as above; format: cell-based, Corynebacterium ammoniagenes; conditions: for MIC: Corynebacterium ammoniagenes, ATCC6872, 16 h
[4] = biological target: T1, CaFADS FMNAT activity (Corynebacterium ammoniagenes, UniProt Q59263); experiment: FMNAT activity of CaFADS: residual activity, IC50, inhibition mechanism (HPLC); format: biochemical; conditions: for remaining activity at 250 µM: pH 7, read-out: % Residual FMNAT activity; for remaining activity at 50 µM: read-out: Residual activity (FMNAT)
T1 construct: Recombinant CaFADS was overexpressed in BL21 (DE3) E. coli cells and purified as previously described; made in house; host or cells: E. coli BL21 (DE3)
T1 sequence (Q59263 whole entry): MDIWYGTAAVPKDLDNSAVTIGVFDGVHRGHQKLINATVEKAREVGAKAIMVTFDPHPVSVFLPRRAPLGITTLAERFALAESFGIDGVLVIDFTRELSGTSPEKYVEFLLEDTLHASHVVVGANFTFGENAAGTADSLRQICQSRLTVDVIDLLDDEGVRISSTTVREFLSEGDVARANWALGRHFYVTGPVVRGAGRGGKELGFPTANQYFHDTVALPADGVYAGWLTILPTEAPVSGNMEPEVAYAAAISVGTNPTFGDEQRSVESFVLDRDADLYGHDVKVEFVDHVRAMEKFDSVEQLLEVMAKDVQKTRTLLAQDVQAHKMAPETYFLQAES
Protocol: (§1) Then, the RFK and FMNAT reactions were individually assayed in the presence of the HTS hits at 25 °C. Reaction mixtures contained 50 µM ATP, 5 µM RF, 0.4 µM CaFADS in 20 mM PIPES, pH 7.0, 0.8 mM MgCl2, when assaying the RFK activity, and 50 µM ATP, 10 µM FMN, 0.4 µM CaFADS in 20 mM PIPES, pH 7.0, 10 mM MgCl2 when measuring the FMNAT reaction. […] Finally, reactions were stopped by boiling the samples at 100 °C for 5 min, and the precipitated protein was eliminated through centrifugation. The transformation of RF into FMN or FAD was evaluated through flavins separation by HPLC, as previously described. […] When assaying the HTS hits against the FMNAT activity of SpnFADS, similar conditions were used but samples contained 3 mM sodium dithionite to maintain the flavin in its reduced state. Data were processed as previously reported. All the experiments were performed in triplicate.
(§2) Experiments were performed and analysed through HPLC as described above. Positive controls (without any hit compound) were included in every reaction set. DMSO concentration was kept at 2.5% in all samples. All the experiments were performed in triplicate.
All the experiments were carried out in 20 mM PIPES, 10 mM MgCl2, pH 7.0, 2.5% DMSO at 25 °C, being the final reaction volume 500 µl. The reactions were initiated by addition of CaFADS at a final concentration of ∼40 nM, followed by 1 min incubation. The flavin composition of the supernatant was analysed as previously described. All the experiments were performed in triplicate. The effect of the inhibitors on Km and Vmax was determined by fitting the data sets to the Michaelis–Menten model. Additionally, data were globally fit to Lineweaver–Burk equations for competitive, uncompetitive, non-competitive or mixed inhibition, yielding Ki, as well as Ki′ when applying, for each compound (Equations (1–4), respectively).

[5] = biological target: T2, CaFADS RFK activity (Corynebacterium ammoniagenes, UniProt Q59263); experiment: RFK activity of CaFADS in the presence of HTS hits (flavins separated by HPLC); format: biochemical; conditions: pH 7, read-out: % Residual RFK activity
T2 construct: Recombinant CaFADS was overexpressed in BL21 (DE3) E. coli cells and purified as previously described; made in house; host or cells: E. coli BL21 (DE3)
T2 sequence (Q59263 whole entry): as above
Protocol: as §1

[6] = biological target: SpnFADS FMNAT activity (Streptococcus pneumoniae, UniProt A0A0H2UPY5); experiment: biochemical; conditions: SpnFADS, 25 °C
Sequence of SpnFADS FMNAT activity (A0A0H2UPY5 entry or part of it): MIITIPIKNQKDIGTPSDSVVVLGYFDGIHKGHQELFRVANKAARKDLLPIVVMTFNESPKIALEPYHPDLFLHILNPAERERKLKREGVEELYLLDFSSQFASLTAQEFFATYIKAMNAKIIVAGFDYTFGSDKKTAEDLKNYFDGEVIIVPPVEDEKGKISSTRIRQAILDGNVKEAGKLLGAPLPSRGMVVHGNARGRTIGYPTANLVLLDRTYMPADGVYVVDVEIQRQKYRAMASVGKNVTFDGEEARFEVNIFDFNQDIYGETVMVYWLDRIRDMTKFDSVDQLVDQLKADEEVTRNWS
Protocol: as §1, §2

[7] = biological target: SpnFADS RFK activity (Streptococcus pneumoniae, UniProt A0A0H2UPY5); experiment: biochemical; conditions: for IC50: compounds assayed 0–100 μM, read-out: RFK activity IC50
Sequence of SpnFADS RFK activity (A0A0H2UPY5 entry or part of it): as above
Protocol: as §1, §2

[8] = Mycobacterium tuberculosis, ATCC27, 144 h
[9] = Streptococcus pneumoniae, ATCC49619, 10 h
[10] = read-out: Minimal inhibitory concentration (MIC) C. ammoniagenes
[11] = assayed 0.125–64 μM, 6 days at 37 °C, Middlebrook 7H9
[12] = 100 μM of each compound, n = 3, mean ± SD, read-out: FMNAT activity Res. activity

Molecule | MIC [1, 8] | MIC [2, 9] | MIC [3, 10] | IC50 [4] | remaining activity at 250 µM [4] | remaining activity at 50 µM [4] | remaining activity at 250 µM [5] | IC50 ([7]; SpnFADS, 25 °C) | other results
O=C(O)c1cccnc1Nc1cccc(C(F)(F)F)c1 [HTS hit 11] | > 64 µM | > 64 µM | > 64 µM | 9 ± 1.3 µM | ≤ 5% | 34.6 ± 4.9% | ≥ 75% | – | –
verteporfin [HTS hit 47] | – | – | – | – | – | – | – | – | MIC [1, 11]: 8 µM; MIC ([2]; assayed 0.125–64 μM, 10 h at 37 °C, BHI with 4% FBS): 4 µM; Minimal inhibitory concentration (MIC) C. ammoniagenes ([3]; assayed 0.125–64 μM, 16 h at 37 °C, BHI): 2 to 4 µM
CN1CCCN=C1/C=C/c1cccc(O)c1 [HTS hit 19, oxantel pamoate] | – | – | – | 20.8 ± 2.6 µM | ≤ 5% | 43.3 ± 3.9% | ≥ 75% | – | –
O=C(O)c1cc(/N=N/c2ccc(S(=O)(=O)Nc3ccccn3)cc2)ccc1O [HTS hit 8, sulfasalazine] | – | – | – | – | 5 to 50% | – | ≥ 75% | – | –
Cc1c(Cl)cccc1Nc1ccccc1C(=O)O [HTS hit 2] | > 64 µM | > 64 µM | > 64 µM | 8.9 ± 1 µM | ≤ 5% | 41.1 ± 5.2% | ≥ 75% | > 100 µM | remaining activity at 100 µM [6, 12]: 100 ± 12%; remaining activity at 100 µM ([7]; read-out: RFK activity Res. activity): 78 ± 10%
CCCCC(CC)CNC(=N)NC(=N)NCCCCCCNC(=N)NC(=N)NCC(CC)CCCC (stereo not shown) [HTS hit 33, alexidine dihydrochloride] | 2 to 4 µM | 0.5 µM | 0.125 µM | – | ≤ 5% | – | ≤ 5% | 33 ± 4 µM | Minimal inhibitory concentration (MIC) M. tuberculosis [1, 11]: below 8 μM; MIC ([3]; read-out: Minimal inhibitory concentration (MIC) C. ammoniagenes, assayed 0.125–64 μM, 16 h at 37 °C, BHI): < 2 µM; activity at 100 µM [6, 12]: 93 ± 11%; IC50 ([6]; compounds assayed 0–100 μM, read-out: FMNAT activity IC50): > 100 µM; activity at 100 µM ([7]; SpnFADS, 100 μM of each compound, 25 °C, n = 3, mean ± SD, read-out: RFK activity Res. activity): 26 ± 3%
